The test deals with PUCR comprising 38C2 scFab expressed on the membrane of the NKL cells. Kind of test: Programming of PUCR on NKL cells with AZD-PEG8-biotin, detected with DTAF-conjugated streptavidin by FACS. The class given is cell-based. The note with it: 1 μM or 10 μM, 4° C., 1 hour, PUCR-expressing vs wild-type NKL cells. The text has this: To generate constructs encoding a PUCR comprising humanized 38C2 scFab, a nucleic acid encoding the humanized 38C2 scFab was designed by fusing a nucleic acid encoding humanized 38C2 […] LC domain, a nucleic acid encoding a poly-GlySer linker, a nucleic acid encoding the humanized 38C2 VH domain, and a nucleic acid encoding the human gamma 1 HC constant domain 1. The resulting nucleic acid fragment was cloned into a retroviral vector to encode a PUCR comprising an N-terminal leader peptide, followed by the 38C2 scFab, followed by a hybrid CD8 and CD28 hinge, a CD28 transmembrane domain, a CD28 intracellular domain, and a CD3ζ intracellular domain. The nucleic acid and amino acid sequences of the PUCR are shown below. NKL cells were transduced with the viral vector encoding the PUCR.
The PUCR comprising 38C2 scFab expressed on the membrane of the NKL cells was conjugated (i.e., programmed) with the specificity agent AZD-PEG8-biotin (see FIG. 11). […] AZD-PEG8-biotin comprises the reactivity moiety azetidinone which reacts with and forms a stable covalent bond with the reactive lysine of the 38C2 scFab within the PUCR. […] Fluorescence was measured using a ACEA Biosciences NovoCyte flow cytometer. Data was analyzed with FlowJo software, and DTAF-conjugated streptavidin binding was quantified by increased mean fluorescence intensity. […]
A general note: A flow cytometer gives signals particle by particle.

In the case of `O=C(CCCC[C@@H]1SC[C@@H]2NC(=O)N[C@@H]21)NCCOCCOCCOCCOCCOCCOCCNC(=O)CCOCCOCCC(=O)Nc1ccc(CCC(=O)N2CCC2=O)cc1` [AZD-PEG8-Biotin, 5-[(3aS,4S,6aR)-2-oxo-1,3,3a,4,6,6a-hexahydrothieno[3,4-d]imidazol-4-yl]-N-[2-[2-[2-[2-[2-[2-[2-[3-[2-[3-oxo-3-[4-[3-oxo-3-(2-oxoazetidin-1-yl)propyl]anilino]propoxy]ethoxy]propanoylamino]ethoxy]ethoxy]ethoxy]ethoxy]ethoxy]ethoxy]ethyl]pentanamide], the “conjugation (programming) of PUCR, DTAF-conjugated streptavidin binding” value is recorded as “successfully programmed”.
